Measurements from the NIST ThermoML archive (doi:10.1016/j.jct.2005.03.012).

Test: excess molar enthalpy (molar enthalpy of mixing); xn = mol fraction of the nth substance listed
Conditions: Liquid

CO [methanol] + O
Conditions	excess molar enthalpy [kcal/mol]
425.1 K, 10000 kPa, x1 = 0.8	0.0323
468.38 K, 10000 kPa, x1 = 0.4	0.119
468.72 K, 8500 kPa, x1 = 0.4	0.115
469.1 K, 10000 kPa, x1 = 0.6	0.114
469.29 K, 5000 kPa, x1 = 0.4	0.104
469.31 K, 8500 kPa, x1 = 0.6	0.11
469.39 K, 5000 kPa, x1 = 0.3	0.0932
469.49 K, 5000 kPa, x1 = 0.5	0.104
469.5 K, 10000 kPa, x1 = 0.2	0.0801
469.66 K, 8500 kPa, x1 = 0.2	0.0793
469.81 K, 5000 kPa, x1 = 0.2	0.0717
469.91 K, 5000 kPa, x1 = 0.6	0.096
470.63 K, 5000 kPa, x1 = 0.7	0.0803
470.65 K, 10000 kPa, x1 = 0.4	0.122
470.78 K, 10000 kPa, x1 = 0.6	0.115
470.8 K, 10000 kPa, x1 = 0.8	0.0707
471.01 K, 8500 kPa, x1 = 0.4	0.118
471.06 K, 8500 kPa, x1 = 0.8	0.0689
471.22 K, 5000 kPa, x1 = 0.1	0.0392
471.24 K, 5000 kPa, x1 = 0.4	0.104
471.34 K, 5000 kPa, x1 = 0.8	0.057
471.36 K, 5000 kPa, x1 = 0.5	0.104
471.45 K, 5000 kPa, x1 = 0.3	0.0941
471.49 K, 8500 kPa, x1 = 0.6	0.113
471.54 K, 8500 kPa, x1 = 0.2	0.0812
471.91 K, 5000 kPa, x1 = 0.6	0.0953
472.04 K, 5000 kPa, x1 = 0.7	0.0796
472.16 K, 10000 kPa, x1 = 0.8	0.0715
472.23 K, 5000 kPa, x1 = 0.9	0.0296
472.28 K, 5000 kPa, x1 = 0.8	0.0561
472.49 K, 10000 kPa, x1 = 0.2	0.0832
473.11 K, 5000 kPa, x1 = 0.2	0.0722
473.15 K, 5000 kPa, x1 = 0.1	0.0395
473.15 K, 5000 kPa, x1 = 0.2	0.0719
473.15 K, 5000 kPa, x1 = 0.3	0.0932
473.15 K, 5000 kPa, x1 = 0.4	0.103
473.15 K, 5000 kPa, x1 = 0.5	0.103
473.15 K, 5000 kPa, x1 = 0.6	0.095
473.15 K, 5000 kPa, x1 = 0.7	0.0788
473.15 K, 5000 kPa, x1 = 0.8	0.0555
473.15 K, 5000 kPa, x1 = 0.9	0.0298
473.15 K, 8500 kPa, x1 = 0.2	0.0818
473.15 K, 8500 kPa, x1 = 0.4	0.119
473.15 K, 8500 kPa, x1 = 0.6	0.113
473.15 K, 8500 kPa, x1 = 0.8	0.0696
473.15 K, 10000 kPa, x1 = 0.2	0.0827
473.15 K, 10000 kPa, x1 = 0.4	0.124
473.15 K, 10000 kPa, x1 = 0.6	0.117
473.15 K, 10000 kPa, x1 = 0.8	0.0735
473.17 K, 5000 kPa, x1 = 0.9	0.0285
473.36 K, 5000 kPa, x1 = 0.1	0.0397
473.78 K, 8500 kPa, x1 = 0.8	0.0702
474.92 K, 5000 kPa, x1 = 0.1	0.0401
474.92 K, 5000 kPa, x1 = 0.2	0.0721
474.92 K, 5000 kPa, x1 = 0.3	0.0937
474.92 K, 5000 kPa, x1 = 0.4	0.103
474.92 K, 5000 kPa, x1 = 0.5	0.102
474.92 K, 5000 kPa, x1 = 0.6	0.0941
474.92 K, 5000 kPa, x1 = 0.7	0.0778
474.92 K, 5000 kPa, x1 = 0.8	0.0536
474.92 K, 5000 kPa, x1 = 0.9	0.0277
475.17 K, 10000 kPa, x1 = 0.2	0.0854
475.17 K, 10000 kPa, x1 = 0.4	0.126
475.17 K, 10000 kPa, x1 = 0.6	0.118
475.17 K, 10000 kPa, x1 = 0.8	0.0755
475.47 K, 8500 kPa, x1 = 0.2	0.083
475.47 K, 8500 kPa, x1 = 0.4	0.121
475.47 K, 8500 kPa, x1 = 0.6	0.115
475.47 K, 8500 kPa, x1 = 0.8	0.0705
493.71 K, 10000 kPa, x1 = 0.4	0.128
494.59 K, 10000 kPa, x1 = 0.2	0.0893
494.68 K, 10000 kPa, x1 = 0.6	0.118
495.72 K, 10000 kPa, x1 = 0.4	0.125
496.09 K, 10000 kPa, x1 = 0.2	0.0884
496.33 K, 10000 kPa, x1 = 0.8	0.0702
497.18 K, 10000 kPa, x1 = 0.6	0.116
498.15 K, 8500 kPa, x1 = 0.1	0.0443
498.15 K, 8500 kPa, x1 = 0.2	0.0795
498.15 K, 8500 kPa, x1 = 0.3	0.0979
498.15 K, 8500 kPa, x1 = 0.4	0.106
498.15 K, 8500 kPa, x1 = 0.5	0.103
498.15 K, 8500 kPa, x1 = 0.6	0.0938
498.15 K, 8500 kPa, x1 = 0.7	0.0758
498.15 K, 8500 kPa, x1 = 0.8	0.0522
498.15 K, 8500 kPa, x1 = 0.9	0.0256
498.15 K, 10000 kPa, x1 = 0.2	0.0875
498.15 K, 10000 kPa, x1 = 0.4	0.124
498.15 K, 10000 kPa, x1 = 0.6	0.114
498.15 K, 10000 kPa, x1 = 0.8	0.0689
498.93 K, 10000 kPa, x1 = 0.8	0.0687
500.09 K, 8500 kPa, x1 = 0.1	0.0446
500.09 K, 8500 kPa, x1 = 0.2	0.0768
500.09 K, 8500 kPa, x1 = 0.3	0.0941
500.09 K, 8500 kPa, x1 = 0.4	0.101
500.09 K, 8500 kPa, x1 = 0.5	0.0978
500.09 K, 8500 kPa, x1 = 0.6	0.0868
500.09 K, 8500 kPa, x1 = 0.7	0.0683
500.09 K, 8500 kPa, x1 = 0.8	0.0466
500.09 K, 8500 kPa, x1 = 0.9	0.0222
500.24 K, 10000 kPa, x1 = 0.2	0.087
500.24 K, 10000 kPa, x1 = 0.4	0.122
500.24 K, 10000 kPa, x1 = 0.6	0.112
500.24 K, 10000 kPa, x1 = 0.8	0.0679
504.64 K, 10000 kPa, x1 = 0.4	0.111
